Laboratory results reported in patent US20210267960A1, “METHODS OF TREATMENT OF INFLAMMATORY CYTOKINE-RELATED ARTHRITIC DISORDERS” (Bridge Pharma Inc., priority 2020, published 2021).

Key:
[1] = Preclinical studies of immune-suppressive effects; details: compared with the steroids
Description: Norketotifen is thus particularly useful in the treatment of diseases treatable with the TNFα blocking agents adalimumab (Humira®), infliximab (Remicade®, Inflectra®), certolizumab pegol (Cimzia®), golimumab (Simponi®) and enteracept (Enbrel®); the IL-4 and IL-13 inhibitors dupilumab (Dupixent®), pascolizumab, pitrakinra, and lebrikizumab, anrukinzumab, and tralokinumab; and the IL-5 inhibitors mepolizumab, reslizumab and benralizumab. Advantageously, norketotifen is a small molecule and oral and parenteral administration of norketotifen can provide for convenience and significant cost savings.

human white blood cells = assay: Induced cytokine release from stimulated human white blood cells (overall conclusion); format: cell-based; details: PHA 5 μg/ml, 16 hours; conclusion in words
Experimental: The objective of this study was to assess the ability of norketotifen to inhibit induced cytokine release from stimulated human white blood cells.
The study was conducted in two phases. The first phase included optimization of the test methodology and including dose-range finding studies, using buffy coats from 3 human donors, stimulated with phytohemagglutinin (PHA). Following optimization of the test conditions, a final protocol was issued. In the following Main Study, white blood cells (buffy coats) from 5 healthy human donors were stimulated with PHA, 5 μg/ml. The concentrations of the test article and the duration of exposure were optimized to obtain acceptable dose-response ratios. Thus, the inhibitory effects of three concentrations of NK and one concentration of ketotifen were evaluated in the Main Study. The buffy coats containing white blood cells from 5 male human donors were resuspended in assay media and were pre-incubated for 30 min with either vehicle/saline, ketotifen 10 μM ([…]) or norketotifen 1 μM and 10 μM and 100 μM, corresponding to 0.411 μg/ml, 4.11 μg/ml and 41.1 μg/ml, resp. Following these preincubations, the white blood cells were stimulated for 16 hours with PHA, 5 μg/ml. The cell system supernatants were then harvested and stored frozen pending analyses. […]

mouse = mouse model of sedation; U.S. Pat. Nos. 7,226,934 and 7,557,128; cited from earlier work

## O=C1Cc2ccccc2C(=C2CCNCC2)c2ccsc21 (racemic) [Norketotifen, norketotifen]
[1]
  Adverse immune-suppressive effects: free from the adverse immune-suppressive effects
Human white blood cells
  Inhibition of the release of cytokines from human white blood cells: potently and dose-dependently inhibited

## CN1CCC(=C2c3ccccc3CC(=O)c3sccc32)CC1 [Ketotifen, ketotifen, reference compound]
Human white blood cells
  Inhibition of the release of cytokines from human white blood cells: No statistically significant inhibition

## O=C(O)/C=C/C(=O)O.O=C1Cc2ccccc2C(=C2CCNCC2)c2ccsc21 [R-isomer, R-norketotifen]
mouse
  Sedative effects: sedative effects were attributed to the R-isomer
